The text below walks through data of patent publication US11464720B2, “TRPA1 activity inhibitor” (MANDOM CORPORATION, priority 2017, dated 2022).

Experiment [1] concerns the target T1, human TRPA1 (Homo sapiens, UniProt O75762).
T1 construct: expressed in transfected cells; host or cells: HEK293 cells, transient lipofection of pcDNA3.1(+) human TRPA1-expression vector
As to the kind of experiment: Test Example 1: TRPA1 activity-inhibition ratio, intracellular calcium (Fura 2-AM) in TRPA1-expressing HEK293 cells stimulated with menthol. The format is cell-based. The following applies: mixed with agonist 1 mM menthol. The protocol: A cDNA encoding human TRPA1 [a polynucleotide of position 63 to position 3888 of the nucleotide sequence shown in SEQ ID NO: 1 (GenBank Accession No.: NM_007332)] was inserted into a cloning site of a vector for mammalian cells [manufactured by Invitrogen under the trade name of pcDNA3.1(+)], to obtain a human TRPA1-expression vector. One microgram of the resulting human TRPA1-expression vector was mixed with 6 μL of a gene transfer reagent [manufactured by Invitrogen under the trade name of PLUS Reagent, Catalogue No.: 11514-015], to obtain a mixture I. Additionally, 4 μL of a cationic lipid for gene transfer [manufactured by Invitrogen under the trade name of Lipofectamine (registered trademark), Catalogue No.: 18324-012] was mixed with 200 μL of a medium for reducing serum consumption [Manufactured by Invitrogen under the trade name of Opti-MEM (registered trademark) I Reduced Serum Medium (catalogue No.: 11058021)], to obtain a mixture II.
Furthermore, 5×10^5 cells of HEK293 cells were cultured in a 10% by mass fetal bovine serum (FBS)-containing Dulbecco's modified Eagle's medium (DMEM) on a dish having a diameter of 35 mm maintained at 37° C. under 5% by volume carbon dioxide atmosphere to 70% confluence.
By adding the mixture I and the mixture II to the resulting cell culture, the human TRPA1-expression vector was introduced into HEK293 cells, to obtain TRPA1-expressing cells. […]
Thereafter, intensity of fluorescence A based on the Fura 2-AM introduced into the TRPA1-expressing cell and bound to a calcium ion in the cells at an excitation wavelength of 340 nm in the chamber and intensity of fluorescence B based on the Fura 2-AM introduced into the TRAP1-expressing cell at an excitation wavelength of 380 nm were measured.
Using the measured intensity of fluorescence A and B, Δfluorescence intensity ratioagonist was calculated. The Δfluorescence intensity ratioagonist was calculated on the basis of the formula (IV): [Formula 1] ΔFluorescence intensity ratioagonist=(Fluorescence intensity340 nm in the presence of an agonist/Fluorescence intensity 380 nm in the presence of an agonist)−(Fluorescence intensity340 nm in the presence of a control/Fluorescence intensity380 nm in the presence of a control) (IV).
In the formula (IV), the intensity of fluorescence A was used as fluorescence intensity340 nm, and the intensity of fluorescence B was used as fluorescence intensity380 nm. […]
In general terms: Calcium flux is commonly read through the fluorescence of an indicator in the cells.

The target of experiment [2] is T2, human TRPM8 (Homo sapiens, UniProt Q7Z2W7).
T2 construct: expressed in transfected cells; host or cells: HEK293 cells, transient lipofection of pcDNA3.1(+) human TRPM8-expression vector
T2 sequence (Q7Z2W7 whole entry): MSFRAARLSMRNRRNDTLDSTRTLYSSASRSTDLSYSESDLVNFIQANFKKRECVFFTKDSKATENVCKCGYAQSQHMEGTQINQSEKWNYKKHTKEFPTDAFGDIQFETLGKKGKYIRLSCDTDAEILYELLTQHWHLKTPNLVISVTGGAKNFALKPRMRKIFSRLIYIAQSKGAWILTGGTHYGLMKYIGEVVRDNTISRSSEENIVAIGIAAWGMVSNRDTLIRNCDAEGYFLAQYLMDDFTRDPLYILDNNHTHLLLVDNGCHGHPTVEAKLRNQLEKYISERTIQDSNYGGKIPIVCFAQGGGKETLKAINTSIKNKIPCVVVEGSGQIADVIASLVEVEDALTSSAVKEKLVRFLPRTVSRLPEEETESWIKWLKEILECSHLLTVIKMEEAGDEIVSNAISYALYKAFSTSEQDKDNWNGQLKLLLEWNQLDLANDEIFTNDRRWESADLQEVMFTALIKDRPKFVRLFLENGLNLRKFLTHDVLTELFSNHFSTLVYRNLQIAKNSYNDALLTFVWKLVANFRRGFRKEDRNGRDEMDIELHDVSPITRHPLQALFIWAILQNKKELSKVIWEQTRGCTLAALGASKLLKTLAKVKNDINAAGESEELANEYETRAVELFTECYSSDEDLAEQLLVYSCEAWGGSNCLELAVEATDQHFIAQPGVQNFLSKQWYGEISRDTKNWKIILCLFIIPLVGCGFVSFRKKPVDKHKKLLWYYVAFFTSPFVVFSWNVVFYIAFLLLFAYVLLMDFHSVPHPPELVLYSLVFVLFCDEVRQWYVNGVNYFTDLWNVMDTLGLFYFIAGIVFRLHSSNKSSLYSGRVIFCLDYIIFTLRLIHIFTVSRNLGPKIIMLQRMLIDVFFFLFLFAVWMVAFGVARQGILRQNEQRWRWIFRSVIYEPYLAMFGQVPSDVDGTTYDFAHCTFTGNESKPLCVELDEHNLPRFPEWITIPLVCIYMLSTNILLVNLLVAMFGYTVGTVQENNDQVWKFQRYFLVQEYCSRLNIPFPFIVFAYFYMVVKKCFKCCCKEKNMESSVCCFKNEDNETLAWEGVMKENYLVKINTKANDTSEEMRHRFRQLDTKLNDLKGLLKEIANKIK
As to the kind of experiment: Test Example 2: enhancement degree of TRPM8 activity, intracellular calcium (Fura 2-AM) in TRPM8-expressing HEK293 cells. As to conditions: test sample 0.5 mM, ratio to TRPM8 activity enhanced by agonist 1 mM menthol, FIG. 2. It is filed as cell-based. The procedure: A cDNA encoding human TRPM8 [a polynucleotide of position 41 to position 3355 of the nucleotide sequence shown in SEQ ID NO: 3 (GenBank Accession No.: NM_024080)] was inserted into a cloning site of a vector for mammalian cells [manufactured by Invitrogen under the trade name of pcDNA3.1(+)], to obtain a human TRPM8-expression vector. One microgram of the resulting human TRPM8-expression vector was mixed with 6 μL of a gene transfer reagent [manufactured by Invitrogen under the trade name of PLUS Reagent, Catalogue No.: 11514-015], to obtain a mixture III. […]
Thereafter, intensity of fluorescence E based on the Fura 2-AM introduced into the TRPM8-expressing cell and bound to a calcium ion in the cells at an excitation wavelength of 340 nm and intensity of fluorescence F based on the Fura 2-AM introduced into the TRAM8-expressing cell at an excitation wavelength of 380 nm were measured in the chamber.
Using the measured intensity of fluorescence E and F, Δfluorescence intensity ratiotest sample was calculated on the basis of the formula (V). In the formula (V), the intensity of fluorescence E was used as fluorescence intensity340 nm, and the intensity of fluorescence F was used as fluorescence intensity380 nm. […]

Where [3] appears, read: test sample 1 mM in solvent A, FIG. 1.

T1 sequence (O75762 whole entry): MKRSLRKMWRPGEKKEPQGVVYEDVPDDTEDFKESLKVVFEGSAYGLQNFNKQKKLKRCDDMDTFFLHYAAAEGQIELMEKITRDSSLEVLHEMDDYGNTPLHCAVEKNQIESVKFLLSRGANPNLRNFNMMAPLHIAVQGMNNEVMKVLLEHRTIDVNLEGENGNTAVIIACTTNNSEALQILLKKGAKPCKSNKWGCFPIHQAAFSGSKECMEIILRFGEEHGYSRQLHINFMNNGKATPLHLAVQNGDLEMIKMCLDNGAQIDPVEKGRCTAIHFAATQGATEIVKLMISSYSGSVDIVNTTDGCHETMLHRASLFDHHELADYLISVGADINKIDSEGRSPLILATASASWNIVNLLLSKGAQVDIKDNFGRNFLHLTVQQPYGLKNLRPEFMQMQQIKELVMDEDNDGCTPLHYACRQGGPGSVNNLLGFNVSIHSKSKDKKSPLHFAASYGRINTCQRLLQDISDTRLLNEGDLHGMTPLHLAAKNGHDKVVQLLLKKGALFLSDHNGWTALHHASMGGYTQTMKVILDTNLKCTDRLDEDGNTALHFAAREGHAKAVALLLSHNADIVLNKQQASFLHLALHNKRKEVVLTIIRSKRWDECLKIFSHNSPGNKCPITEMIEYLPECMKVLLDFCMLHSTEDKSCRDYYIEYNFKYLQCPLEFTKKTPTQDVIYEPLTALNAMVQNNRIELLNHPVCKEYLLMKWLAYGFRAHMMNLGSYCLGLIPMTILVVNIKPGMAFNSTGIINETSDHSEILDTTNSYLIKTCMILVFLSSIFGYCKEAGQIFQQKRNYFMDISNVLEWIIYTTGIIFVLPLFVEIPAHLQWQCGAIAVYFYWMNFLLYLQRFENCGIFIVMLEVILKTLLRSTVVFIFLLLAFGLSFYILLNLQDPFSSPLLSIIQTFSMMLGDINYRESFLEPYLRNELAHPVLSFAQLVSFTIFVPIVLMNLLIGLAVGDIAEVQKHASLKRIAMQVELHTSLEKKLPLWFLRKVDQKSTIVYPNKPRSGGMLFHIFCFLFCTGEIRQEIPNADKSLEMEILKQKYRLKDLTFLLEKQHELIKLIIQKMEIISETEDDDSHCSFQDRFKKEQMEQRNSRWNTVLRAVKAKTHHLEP

As to `OCC(O)CO` [Comparative Example 1, Glycerol], in experiment [1] (test sample 5 mM glycerol in solvent A, FIG. 1 lane 4), the TRPA1 activity-inhibition ratio is recorded as not above 0%.

Take `CC1(C)C2CCC1(C)C(OCCO)C2` (stereo not drawn) [Example 1, 2-isobornyloxyethanol]: the TRPA1 activity-inhibition ratio result in experiment [1] (setting [3]) is “about 99%”. Also, the “Enhancement degree of TRPM8 activity” value in experiment [2] is recorded as “about 0.69”.

Turning to `CC1(C)C2CCC1(C)C(O)C2` (stereo not drawn) [Reference Example 1, Borneol], in experiment [1] (setting [3]), the TRPA1 activity-inhibition ratio entry is “about 96%”. For the same compound, in experiment [2], the “Enhancement degree of TRPM8 activity” value is given as “about 0.35”.

As for `CC12CCC(CC1)C(C)(C)O2` [Reference Example 2, 1,8-cineole], the TRPA1 activity-inhibition ratio entry in experiment [1] (setting [3]) was “about 71%”.
